Laboratory results as given in ChEMBL document CHEMBL3826919, “The discovery of novel and selective fatty acid binding protein 4 inhibitors by virtual screening and biological evaluation” (Bioorg Med Chem, 2016).

How the values were obtained:
[1] = target: T1, Fatty acid-binding protein, adipocyte (Homo sapiens, UniProt P15090); assay: Displacement of 1,8-ANS from His6-tagged FABP4 (unknown origin) expressed in Escherichia coli BL21(DE3) cells at 25 uM by fluorescence assay relative to control
Target sequence in this assay (P15090 2-132 limits assumed): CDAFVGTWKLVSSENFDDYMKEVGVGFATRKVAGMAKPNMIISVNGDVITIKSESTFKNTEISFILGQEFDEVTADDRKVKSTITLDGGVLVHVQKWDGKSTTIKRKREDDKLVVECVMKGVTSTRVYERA

[2] = target: T1, Fatty acid-binding protein, adipocyte; assay: Binding affinity to His6-tagged FABP4 (unknown origin) expressed in Escherichia coli BL21(DE3) cells assessed as change in melting temperature at 50 uM after 30 mins by SYPRO orange dye based thermal stability shift assay
Target sequence in this assay (P15090 2-132 limits assumed): as above

[3] = target: T1, Fatty acid-binding protein, adipocyte; assay: Displacement of 1,8-ANS from His6-tagged FABP4 (unknown origin) expressed in Escherichia coli BL21(DE3) cells by fluorescence assay; conditions: read-out: Ki(app)
Target sequence in this assay (P15090 whole entry): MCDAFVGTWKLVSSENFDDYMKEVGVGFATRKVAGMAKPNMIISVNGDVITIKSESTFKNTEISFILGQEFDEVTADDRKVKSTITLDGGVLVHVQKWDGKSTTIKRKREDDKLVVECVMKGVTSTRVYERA

[4] = target: T2, Fatty acid-binding protein, adipocyte (Mus musculus) (UniProt P04117); assay: Inhibition of FABP4 in mouse RAW264.7 cells assessed as inhibition of LPS-induced TNFalpha production after 24 hrs by ELISA; assay type: cell-based
T2 sequence (whole entry): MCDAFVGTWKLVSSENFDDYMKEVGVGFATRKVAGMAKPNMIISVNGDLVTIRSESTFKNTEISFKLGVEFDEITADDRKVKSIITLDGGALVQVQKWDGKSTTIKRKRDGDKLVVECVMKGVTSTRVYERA

[5] = target: T2, Fatty acid-binding protein, adipocyte (Mus musculus); assay: Inhibition of FABP4 in mouse RAW264.7 cells assessed as inhibition of LPS-induced TNFalpha expression after 24 hrs by qPCR method; assay type: cell-based
[6] = target: T2, Fatty acid-binding protein, adipocyte (Mus musculus); assay: Inhibition of FABP4 in mouse RAW264.7 cells assessed as inhibition of LPS-induced IL-6 expression after 24 hrs by qPCR method; assay type: cell-based
Homo sapiens [7] = species on record: Homo sapiens; assay: Displacement of 1,8-ANS from His6-tagged FABP4 (unknown origin) R106A mutant expressed in Escherichia coli BL21(DE3) cells at 25 uM by fluorescence assay relative to control
Homo sapiens [8] = species on record: Homo sapiens; assay: Displacement of 1,8-ANS from His6-tagged FABP4 (unknown origin) R126A mutant expressed in Escherichia coli BL21(DE3) cells at 25 uM by fluorescence assay relative to control

Row | inhibition [1] | ΔTm [2] | SMILES | further results
1 | 0.5% | 0 °C | CN(CC(=O)O)c1ncc(-c2nnnn2-c2ccccc2)c(-c2ccccc2Cl)n1 | –
2 | – | 5.8 °C | Cc1cc(C)c2c3c1C1C=CCC1CN3C(C(=O)O)C1CC=CC21 (stereo not given) | Ki [3]: 610 nM
3 | 3.4% | -0.1 °C | O=C(O)CCC(=O)Nc1ccccc1C(=O)N1CCCCCC1 | –
4 | 25.8% | -0.3 °C | CN1C(=O)/C(=N/c2cccc(C(=O)O)c2)S/C1=C\c1cccs1 | –
5 | 0.4% | 0.2 °C | O=C(O)CCC(=O)Nc1sc2c(c1C(=O)Nc1cccc3ccccc13)CCCCC2 | –
6 | 0.9% | 0.3 °C | O=c1cc(O)c2c(=O)n(N(c3ccccc3)c3ccccc3)c3c(c2o1)CCCC3 | –
7 | – | -0.2 °C | CCCN1C2=C(C(=O)CC(C)(C)C2)C(c2cc(Cl)ccc2OCC(=O)O)C2=C1CC(C)(C)CC2=O | –
8 | 6% | 0.1 °C | Cc1[nH]nc2c1C1(C(=O)N(C(C)C(=O)O)c3ccccc31)C(C#N)=C(N)O2 (stereo not given) | –
9 | -5% | 0.1 °C | COc1ccccc1N1CCN(C(=O)c2ccccc2NC(=O)C2CCCCC2C(=O)O)CC1 (stereo not given) | –
10 | 36.8% | -9 °C | Cc1ccc(/N=C2/NC(=O)/C(=C/c3cccn3-c3cccc(C(=O)O)c3)S2)cc1C | Ki [3]: 3600 nM
11 | 27.9% | 2.8 °C | O=C(O)CCSc1nc2ccccc2n1Cc1ccccc1 | –
12 | 4.9% | 1 °C | O=C(O)c1ccccc1C(=O)N(Cc1ccccc1)Cc1ccccc1 | –
13 | – | 1.2 °C | COc1ccc(Cc2c(C)[nH]c3ccc(C(=O)O)cc23)cc1 | –
14 | – | 6.2 °C | Cc1cc2c3c(c1)C1C=CCC1C(C(=O)O)N3CC1CC=CC21 (stereo not given) | inhibition [4]: Dose-dependent effect; inhibition [5]: Dose-dependent effect; inhibition [6]: Dose-dependent effect; Ki [3]: 380 nM
15 | 20.3% | 1.2 °C | COc1ccc(S(=O)(=O)Nc2ccccc2C(=O)O)c2ccccc12 | –
16 | 6.3% | 1.1 °C | COc1cccc(-c2[nH]c3ccccc3c2C2c3ccccc3C(=O)N2CCC(=O)O)c1 (stereo not given) | –
17 | -1.9% | -0.2 °C | CCCCCC(=O)N(CN1C(=O)c2ccccc2C1=O)c1cccc(C(=O)O)c1 | –
18 | -0.3% | 0.2 °C | Cc1ccc(S(=O)(=O)NC(CC(=O)O)c2ccccc2)c(C)c1 (stereo not given) | –
19 | 5.8% | -3.7 °C | Cc1ccc(C(C[N+](=O)[O-])c2c(-c3ccccc3C)n[nH]c2O)cc1 (stereo not given) | –
20 | -3.2% | 0 °C | Cc1nc(=O)c(-c2ccccc2)c(C)n1CCCCCC(=O)O | –
21 | 82.1% | 3.3 °C | CCCCCCCC/C=C\CCCCCCCC(=O)O | inhibition (Homo sapiens [7]): 69.4%; inhibition (Homo sapiens [8]): 48.8%
22 | -0.8% | -0.8 °C | O=C(O)CC/C(=N/NC(=O)c1c[nH]c2ccccc12)c1ccccc1 | –
23 | -3% | 0 °C | Cc1ccc(-n2c(SCC(=O)Nc3c(C)cccc3C)nc(O)cc2=O)cc1 | –
24 | 31.4% | 0.1 °C | CCCOc1cc(S(=O)(=O)Nc2ccc(C(=O)O)cc2)ccc1Cl | Ki [3]: 4300 nM
25 | 63.2% | -1.8 °C | CCOc1cc(/C=C2/SC(=S)N(CCC(=O)O)C2=O)ccc1O | Ki [3]: 2500 nM
26 | – | -2.4 °C | O=C(O)c1cccc(-c2ccc(CNC(Cc3c[nH]c4ccccc34)C(=O)O)o2)c1 (stereo not given) | –
27 | – | 0.1 °C | O=C(O)CC(Sc1nc2sc3c(c2c(=O)[nH]1)CCCC3)C(=O)O (stereo not given) | –

Row | inhibition [1] | ΔTm [2] | SMILES | further results
28 | 39.5% | 0.3 °C | O=C(Nc1cc(Cl)ccc1Cl)/C(=N\Nc1ccccc1C(=O)O)C(=O)c1ccccc1 | Ki [3]: 10300 nM
29 | 6% | 0.5 °C | O=C(O)C(Cc1ccc(O)cc1)N1C(=O)c2c(Cl)c(Cl)c(Cl)c(Cl)c2C1=O (stereo not given) | –
30 | 1% | -0.1 °C | C=C1C(N(CCc2ccc(OC)cc2)C(=O)CCC(=O)O)CC(=O)N1c1ccccc1 (stereo not given) | –
31 | – | 0.8 °C | Cc1cc(=O)n2c3c(cc(S(=O)(=O)NCc4ccc(C(=O)O)cc4)cc13)CC2 | –
32 | 30.2% | 2.8 °C | Cc1oc2c(cc(NS(=O)(=O)c3ccc(Cl)cc3)c3ccccc32)c1C(=O)O | –
33 | – | -9.1 °C | COc1ccccc1-c1cc(C(F)(F)F)nc(S(=O)(=O)CCCC(=O)O)n1 | –
34 | 13% | 2 °C | CCCCCCCn1c(SCC(=O)O)nc2c1c(=O)[nH]c(=O)n2C | –
35 | – | 3.1 °C | CC(Sc1nc(-c2ccccc2)c(-c2ccccc2)[nH]1)C(=O)O (stereo not given) | –
36 | 2.1% | 0.5 °C | CCc1ccccc1NC(=O)C(OC(=O)c1ccccc1)C(OC(=O)c1ccccc1)C(=O)O (stereo not given) | –
37 | 70% | -2.8 °C | O=C(O)CSc1cc(NS(=O)(=O)c2ccc(Cl)cc2)c2ccccc2c1O | Ki [3]: 2300 nM
38 | -3.6% | -0.1 °C | CC(=O)NC(Cc1ccc(O)cc1)C(=O)O (stereo not given) | –
39 | – | -0.1 °C | COc1ccc(-c2ccc(C#N)c(SCC(=O)NCC(=O)O)n2)cc1 | –
40 | – | 7.5 °C | O=C(O)C1C2CC=CC2c2c3c(cc4ccccc24)C2C=CCC2CN31 (stereo not given) | –
41 | 18.2% | 0.2 °C | CCOC(=O)c1cnc2c(ccc3ccccc32)c1Nc1cccc(C(=O)O)c1 | –
42 | 16.6% | 1 °C | COc1ccc(C2C(C(=O)c3ccc(C)cc3)=C(O)C(=O)N2CCCC(=O)O)cc1OC (stereo not given) | –
43 | 18.5% | 0.1 °C | COc1ccc(CN(C(=O)COc2cc(C)ccc2C(C)C)c2ccccc2C(=O)O)cc1 | –
44 | – | 10.6 °C | CCc1c(-c2ccccc2)c(-c2ccccc2)nn1-c1ccccc1-c1cccc(OCC(=O)O)c1 | inhibition [4]: Dose-dependent effect; inhibition [5]: Dose-dependent effect; inhibition [6]: Dose-dependent effect
45 | – | -0.6 °C | O=C(O)COc1ccc(Br)cc1/C=C1\S/C(=N\c2ccc(Cl)cc2)NC1=O | –
46 | – | 7.9 °C | O=C(O)C1C2CC=CC2c2cc(Cl)cc3c2N1CC1CC=CC31 (stereo not given) | Ki [3]: 690 nM
47 | 17.1% | 0 °C | Cc1ccc(C(=O)C2=C(O)C(=O)N(CCCC(=O)O)C2c2ccccc2F)cc1 (stereo not given) | –
48 | -2.5% | -2.6 °C | Cc1ccc(C(=O)/C(=C\Nc2cc(Cl)ccc2C(=O)O)c2nnnn2-c2ccc(C)cc2)cc1 | –
49 | – | 1.1 °C | CCCCC/C=C\C/C=C\CCCCCCCC(=O)O | –
50 | 27.7% | 3.9 °C | O=C(O)C1CCCCC1C(=O)Nc1ccccc1-c1ccccc1 (stereo not given) | –
51 | 0.5% | 0.1 °C | Cc1ccc(C)c(NC(=O)C2CCC(C)(C(=O)O)C2(C)C)c1 (stereo not given) | –
52 | -0.2% | -0.6 °C | O=C(CSc1ncccc1C(=O)O)c1ccc(O)c(O)c1 | –
53 | 9.5% | 0.2 °C | Cc1oc2ccc(NS(=O)(=O)c3ccccc3)cc2c1C(=O)O | –
54 | 7.2% | 0.1 °C | O=C(O)c1ccc(S(=O)(=O)Nc2ccc(O)c(Sc3nc4ccccc4s3)c2)cc1 | –

Row | SMILES | inhibition [1] | ΔTm [2] | further results
55 | O=C(O)C1C2CC(Sc3ccccc3[N+](=O)[O-])C(Cl)C2c2cccc3c2N1CC1CC=CC31 (stereo not given) | 60.2% | 3.5 °C | Ki [3]: 3100 nM
56 | O=C(O)c1cccc2c1NC(c1ccccc1[N+](=O)[O-])C1CC(Sc3ccccc3[N+](=O)[O-])C(Cl)C21 (stereo not given) | 41.5% | -0.2 °C | Ki [3]: 5400 nM
